The target of this assay is kinase domain of IRE1 alpha (His-tagged kinase dead construct KR, AA G547-L977, D688N) (Homo sapiens (Human), UniProt O75460, D688N). The assay is described as follows: IRE1α TR-FRET competition binding assay. As to conditions: competition with Kinase Tracer 236, 0.1 μM; one hour at room temperature. The essentials: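 Sf9-expressed kinase-dead KR construct (0.006 μM final) pre-incubated 1 h at 4° C with Eu anti-His antibody (0.002 μM) in HEPES pH 7.5/MgCl2/Brij/DTT buffer; Kinase Tracer 236 (ATP-competitive probe, 0.1 μM final) added with compound. 1 h at room temperature; tracer displacement read by TR-FRET (665/615 nm).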
For orientation: TR-FRET usually uses a lanthanide donor and a delayed reading to cut background.

The values that follow come from patent publication US12071425B2 (Genentech, Inc., priority 2018, dated 2024).

Structures can show the parent of a compound that is named as a salt.

Sequence of kinase domain of IRE1 alpha (His-tagged kinase dead construct KR, AA G547-L977, D688N) (O75460 547-977 D688N): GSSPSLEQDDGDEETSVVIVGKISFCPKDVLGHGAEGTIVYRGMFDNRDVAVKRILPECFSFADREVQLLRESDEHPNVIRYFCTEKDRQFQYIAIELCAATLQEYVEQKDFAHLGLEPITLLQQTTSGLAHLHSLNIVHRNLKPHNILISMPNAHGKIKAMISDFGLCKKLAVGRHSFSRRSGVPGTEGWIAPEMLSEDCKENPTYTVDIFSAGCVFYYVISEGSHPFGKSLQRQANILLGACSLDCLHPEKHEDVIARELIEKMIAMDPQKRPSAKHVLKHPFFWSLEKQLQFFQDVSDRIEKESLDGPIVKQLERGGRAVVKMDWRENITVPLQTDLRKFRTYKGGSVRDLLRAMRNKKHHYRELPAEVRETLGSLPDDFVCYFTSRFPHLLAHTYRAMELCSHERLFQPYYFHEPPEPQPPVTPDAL

By IC50 is commonly meant the concentration needed to halve the response being measured. Consider `O=S(=O)(CC1CCC1)Nc1ccc(Oc2ncccc2-c2ccnc(N[C@H]3CCCNC3)n2)c(F)c1F` [Compound 173, (S)-1-cyclobutyl-N-(2,3-difluoro-4-((3-(2-(piperidin-3-ylamino)pyrimidin-4-yl)pyridin-2-yl)oxy)phenyl)methanesulfonamide], for which the half-maximal inhibitory concentration (IC50) came out at 8.3 nM.

`C[C@@]1(F)CNC[C@@H](Nc2nccc(-c3cccnc3Oc3ccc(NS(=O)(=O)Cc4ccccc4)c(F)c3F)n2)C1` [Compound 174, N-(2,3-difluoro-4-((3-(2-(((3S,5S)-5-fluoro-5-methylpiperidin-3-yl)amino)pyrimidin-4-yl)pyridin-2-yl)oxy)phenyl)-1-phenylmethanesulfonamide] yielded a concentration for half-maximal inhibition (IC50) of 3.1 nM.

On to `Cc1c(Oc2ncccc2-c2ccnc(N[C@H]3CCCNC3)n2)cc(F)c(NS(=O)(=O)Cc2ccccc2)c1C` [Compound 175, (S)-N-(6-fluoro-2,3-dimethyl-4-((3-(2-(piperidin-3-ylamino)pyrimidin-4-yl)pyridin-2-yl)oxy)phenyl)-1-phenylmethanesulfonamide], for which the IC50 amounted to 5.2 nM.

For the compound `O=S(=O)(Cc1ccccc1)Nc1c(F)cc(Oc2ncccc2-c2ccnc(N[C@@H]3CNC[C@@H](F)C3)n2)c(F)c1F` [Compound 176, 1-Phenyl-N-(2,3,6-trifluoro-4-((3-(2-(((3S,5S)-5-fluoropiperidin-3-yl)amino)pyrimidin-4-yl)pyridin-2-yl)oxy)phenyl)methanesulfonamide], the half-inhibitory concentration (IC50) was found to be 2.5 nM.

In turn, `Cc1cc(NS(=O)(=O)Cc2ccccc2)c(F)c(F)c1Oc1ncccc1-c1ccnc(N[C@@H]2CNC[C@H](C)C2)n1` [Compound 177, N-(2,3-difluoro-5-methyl-4-((3-(2-(((3S,5R)-5-methyl-3-piperidyl)amino)pyrimidin-4-yl)-2-pyridyl)oxy)phenyl)-1-phenyl-methanesulfonamide] had a concentration for half-maximal inhibition (IC50) of 4.9 nM.

In the case of `Cc1cc(NS(=O)(=O)Cc2ccccc2)c(F)c(F)c1Oc1ncccc1-c1ccnc(N[C@@H]2CNC[C@@H](F)C2)n1` [Compound 178, N-(2,3-difluoro-4-((3-(2-(((3S,5S)-5-fluoro-3-piperidyl)amino)pyrimidin-4-yl)-2-pyridyl)oxy)-5-methyl-phenyl)-1-phenyl-methanesulfonamide], the IC50 is 3.5 nM.

For `Cc1c(Oc2ncccc2-c2ccnc(N[C@@H]3CNC[C@@H](F)C3)n2)cc(F)c(NS(=O)(=O)Cc2ccccc2)c1F` [Compound 179, N-(2,6-difluoro-4-((3-(2-(((3S,5S)-5-fluoro-3-piperidyl)amino)pyrimidin-4-yl)-2-pyridyl)oxy)-3-methyl-phenyl)-1-phenyl-methanesulfonamide], the IC50 amounted to 4.3 nM.

For the compound `O=S(=O)(Cc1ccccc1)Nc1ccc(Oc2ncccc2-c2ccnc(NC3CCNCC3)n2)c(F)c1F` [Compound 180, N-(2,3-difluoro-4-((3-(2-(4-piperidylamino)pyrimidin-4-yl)-2-pyridyl)oxy)phenyl)-1-phenyl-methanesulfonamide], the concentration for half-maximal inhibition (IC50) was determined as 38 nM.

Consider `O=C1CC[C@H](Nc2nccc(-c3cccnc3Oc3ccc(NS(=O)(=O)Cc4ccccc4)c(F)c3F)n2)CN1` [Compound 181, (S)-N-(2,3-difluoro-4-((3-(2-((6-oxopiperidin-3-yl)amino)pyrimidin-4-yl)pyridin-2-yl)oxy)phenyl)-1-phenylmethanesulfonamide], for which the IC50 worked out at 36 nM.

Consider `O=S(=O)(Cc1ccccc1)Nc1ccc(Oc2ncccc2-c2ccnc(N[C@H]3CC[C@H](O)CC3)n2)c(F)c1F` [Compound 182, N-(2,3-difluoro-4-((3-(2-(((1r,4r)-4-hydroxycyclohexyl)amino)pyrimidin-4-yl)pyridin-2-yl)oxy)phenyl)-1-phenylmethanesulfonamide], for which the concentration for half-maximal inhibition (IC50) was 9.5 nM.

`O=S(=O)(Cc1ccccc1)Nc1ccc(Oc2ncccc2-c2ccnc(N[C@@H]3CNCC(F)(F)C3)n2)c(F)c1F` [Compound 183, (S)-N-(4-((3-(2-((5,5-difluoropiperidin-3-yl)amino)pyrimidin-4-yl)pyridin-2-yl)oxy)-2,3-difluorophenyl)-1-phenylmethanesulfonamide] came in with a concentration for half-maximal inhibition (IC50) of 8.5 nM. The IC50 values of the last two compounds are within 1.5-fold of each other.

`CN(C)CCNc1nccc(-c2cccnc2Oc2ccc(NS(=O)(=O)Cc3ccccc3)c(F)c2F)n1` [Compound 184, N-(4-((3-(2-((2-(dimethylamino)ethyl)amino)pyrimidin-4-yl)pyridin-2-yl)oxy)-2,3-difluorophenyl)-1-phenylmethanesulfonamide] displayed an IC50 of 57 nM.

For the compound `N#Cc1ccccc1CS(=O)(=O)Nc1ccc(Oc2ncccc2-c2ccnc(N[C@H]3CCCNC3)n2)c(F)c1F` [Compound 187, (S)-1-(2-cyanophenyl)-N-(2,3-difluoro-4-((3-(2-(piperidin-3-ylamino)pyrimidin-4-yl)pyridin-2-yl)oxy)phenyl)methanesulfonamide], the concentration for half-maximal inhibition (IC50) worked out at 2.9 nM.

Regarding `O=S(=O)(CC1(F)CC1)Nc1ccc(Oc2ncccc2-c2ccnc(N[C@H]3CCCNC3)n2)c(F)c1F` [Compound 188, (S)-N-(2,3-difluoro-4-((3-(2-(piperidin-3-ylamino)pyrimidin-4-yl)pyridin-2-yl)oxy)phenyl)-1-(1-fluorocyclopropyl)methanesulfonamide], the 50% inhibitory concentration (IC50) came to 11 nM.

For the compound `CCC(F)(F)CS(=O)(=O)Nc1c(F)cc(Oc2ncccc2-c2ccnc(N[C@@H]3CNC[C@@H](F)C3)n2)c(F)c1F` [Compound 189, 2.2-difluoro-N-(2,3,6-trifluoro-4-((3-(2-(((3S,5S)-5-fluoro-3-piperidyl)amino)pyrimidin-4-yl)-2-pyridyl)oxy)phenyl)butane-1-sulfonamide], the IC50 worked out at 5 nM.

Compound `C[C@@]1(F)CNC[C@@H](Nc2nccc(-c3cccnc3Oc3cc(F)c(NS(=O)(=O)Cc4ccccc4)c(F)c3F)n2)C1` [Compound 190, 1-Phenyl-N-(2,3,6-trifluoro-4-((3-(2-(((3S,5S)-5-fluoro-5-methyl-3-piperidyl)amino)pyrimidin-4-yl)-2-pyridyl)oxy)phenyl)methanesulfonamide] returned an IC50 of 4.7 nM.

On to `N#Cc1ccc(CS(=O)(=O)Nc2c(F)cc(Oc3ncccc3-c3ccnc(N[C@@H]4CNC[C@@H](F)C4)n3)c(F)c2F)cc1` [Compound 191, 1-(4-cyanophenyl)-N-(2,3,6-trifluoro-4-((3-(2-(((3S,5S)-5-fluoropiperidin-3-yl)amino)pyrimidin-4-yl)pyridin-2-yl)oxy)phenyl)methanesulfonamide], for which the IC50 turned out to be 4.3 nM.

The compound `O=S(=O)(CC1CCC1(F)F)Nc1ccc(Oc2ncccc2-c2ccnc(N[C@H]3CCCNC3)n2)c(F)c1F` (stereo partly drawn) [Compound 192, N-(2,3-difluoro-4-((3-(2-(((S)-piperidin-3-yl)amino)pyrimidin-4-yl)pyridin-2-yl)oxy)phenyl)-1-(2,2-difluorocyclobutyl)methanesulfonamide hydrochloride] registered a half-maximal inhibitory concentration (IC50) of 9.7 nM.

Turning to `O=S(=O)(Cc1ccccc1)Nc1c(F)cc(Oc2ncccc2-c2ccnc(N[C@H]3CNC[C@H](F)C3)n2)c(F)c1F` [Compound 193, 1-phenyl-N-(2,3,6-trifluoro-4-((3-(2-(((3R,5R)-5-fluoro-3-piperidyl)amino)pyrimidin-4-yl)-2-pyridyl)oxy)phenyl)methanesulfonamide], the concentration for half-maximal inhibition (IC50) is 33 nM.

Compound `CCC(F)(F)CS(=O)(=O)Nc1c(F)cc(Oc2ncccc2-c2ccnc(N[C@H]3CCCNC3)n2)c(F)c1F` [Compound 194, (S)-2,2-difluoro-N-(2,3,6-trifluoro-4-((3-(2-(piperidin-3-ylamino)pyrimidin-4-yl)pyridin-2-yl)oxy)phenyl)butane-1-sulfonamide] displayed an IC50 of 4 nM. Against the preceding compound, the IC50 is about 8.2-fold lower.

In turn, `Cc1cc(CS(=O)(=O)Nc2c(F)cc(Oc3ncccc3-c3ccnc(N[C@H]4CCCNC4)n3)c(F)c2F)no1` [Compound 195, (S)-1-(5-methylisoxazol-3-yl)-N-(2,3,6-trifluoro-4-((3-(2-(piperidin-3-ylamino)pyrimidin-4-yl)pyridin-2-yl)oxy)phenyl)methanesulfonamide] came in with a 50% inhibitory concentration (IC50) of 4.6 nM.

The compound `O=S(=O)(Cc1ccc(C(F)(F)F)nc1)Nc1c(F)cc(Oc2ncccc2-c2ccnc(N[C@H]3CCCNC3)n2)c(F)c1F` [Compound 196, (S)-N-(2,3,6-trifluoro-4-((3-(2-(piperidin-3-ylamino)pyrimidin-4-yl)pyridin-2-yl)oxy)phenyl)-1-(6-(trifluoromethyl)pyridin-3-yl)methanesulfonamide] had a half-maximal inhibitory concentration (IC50) of 2.5 nM.

In turn, `O=C(NCc1cccc(Oc2ncccc2-c2ccnc(N[C@H]3CCCNC3)n2)c1F)C1CC1` [Compound 197, (S)—N-(2-Fluoro-3-((3-(2-(piperidin-3-ylamino)pyrimidin-4-yl)pyridin-2-yl)oxy)benzyl)cyclopropanecarboxamide] had an IC50 of 490 nM.

The compound `C[C@@]1(F)CNC[C@@H](Nc2nccc(-c3cccnc3Oc3cc(F)c(NS(=O)(=O)CC4CCC4)c(F)c3F)n2)C1` [Compound 202, 1-cyclobutyl-N-(2,3,6-trifluoro-4-((3-(2-(((3S,5S)-5-fluoro-5-methylpiperidin-3-yl)amino)pyrimidin-4-yl)pyridin-2-yl)oxy)phenyl)methanesulfonamide] yielded an IC50 of 4.4 nM.

In turn, `Cc1cc(CS(=O)(=O)Nc2c(F)cc(Oc3ncccc3-c3ccnc(N[C@@H]4CNC[C@@](C)(F)C4)n3)c(F)c2F)no1` [Compound 203, 1-(5-methylisoxazol-3-yl)-N-(2,3,6-trifluoro-4-((3-(2-(((3S,5S)-5-fluoro-5-methylpiperidin-3-yl)amino)pyrimidin-4-yl)pyridin-2-yl)oxy)phenyl)methanesulfonamide] came in with an IC50 of 3.3 nM.

`Cc1cc(CS(=O)(=O)Nc2c(F)cc(Oc3ncccc3-c3ccnc(N[C@@H]4CNC[C@@H](F)C4)n3)c(F)c2F)no1` [Compound 204, 1-(5-methylisoxazol-3-yl)-N-(2,3,6-trifluoro-4-((3-(2-(((3S,5S)-5-fluoropiperidin-3-yl)amino)pyrimidin-4-yl)pyridin-2-yl)oxy)phenyl)methanesulfonamide] displayed a half-maximal inhibitory concentration (IC50) of 4.1 nM. This IC50 and that of the compound before are within 1.5-fold of each other.
